{"source": "the supplement of paper PMC10307832", "assay_in_all_cases": "relative viability (nuclei count vs DMSO), 5 days (fraction); higher = more cells survive", "key": {"NCI-H1734": {"system": "NCI-H1734", "method_in_brief": "(§1)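 Values are medians from duplicate plates. Each reflects relative viability, defined as the nuclei count of treated wells over that of vehicle wells. Lung cancer cell lines in 1536-well plates were pin-tool dosed one day after seeding with one drug alone or with a fixed anchor-drug dose plus five library-drug doses (not always all listed) in √10 steps, then fixed, stained and imaged at 4× after 5 days.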"}, "LCLC-97TM1": {"system": "LCLC-97TM1", "method_in_brief": "as §1"}, "NCI-H2405": {"system": "NCI-H2405", "method_in_brief": "as §1"}, "NCI-H2228": {"system": "NCI-H2228", "method_in_brief": "as §1"}, "HCC-827": {"system": "HCC-827", "method_in_brief": "as §1"}, "PC-14": {"system": "PC-14", "method_in_brief": "as §1"}, "NCI-H661": {"system": "NCI-H661", "method_in_brief": "as §1"}, "HCC-15": {"system": "HCC-15", "method_in_brief": "as §1"}, "NCI-H520": {"system": "NCI-H520", "method_in_brief": "as §1"}, "NCI-H1650": {"system": "NCI-H1650", "method_in_brief": "as §1"}, "NCI-H1755": {"system": "NCI-H1755", "method_in_brief": "as §1"}}, "data": [{"smiles": "Nc1ccn([C@@H]2O[C@H](CO)[C@@H](O)[C@@H]2O)c(=O)n1", "note": "[Cytarabine] + CS(=O)(=O)CCNCc1ccc(-c2ccc3ncnc(Nc4ccc(OCc5cccc(F)c5)c(Cl)c4)c3c2)o1 [Lapatinib] (partner 2 µM)", "values": [{"measurement": "relative viability", "setting": "NCI-H1734; first compound 0.05 µM", "result": 0.481}, {"measurement": "relative viability", "setting": "NCI-H1734; first compound 0.1581 µM", "result": 0.151}, {"measurement": "relative viability", "setting": "NCI-H1734; first compound 0.5 µM", "result": 0.134}, {"measurement": "relative viability", "setting": "LCLC-97TM1; first compound 0.005 µM", "result": 1.06}, {"measurement": "relative viability", "setting": "LCLC-97TM1; first compound 0.01581 µM", "result": 0.495}, {"measurement": "relative viability", "setting": "LCLC-97TM1; first compound 0.05 µM", "result": 0.163}, {"measurement": "relative viability", "setting": "LCLC-97TM1; first compound 0.1581 µM", "result": 0.161}, {"measurement": "relative viability", "setting": "LCLC-97TM1; first compound 0.5 µM", "result": 0.0949}, {"measurement": "relative viability", "setting": "NCI-H2405; first compound 0.005 µM", "result": 0.937}, {"measurement": "relative viability", "setting": "NCI-H2405; first compound 0.01581 µM", "result": 0.698}, {"measurement": "relative viability", "setting": "NCI-H2405; first compound 0.05 µM", "result": 0.637}, {"measurement": "relative viability", "setting": "NCI-H2405; first compound 0.1581 µM", "result": 0.483}, {"measurement": "relative viability", "setting": "NCI-H2405; first compound 0.5 µM", "result": 0.294}, {"measurement": "relative viability", "setting": "NCI-H2228; first compound 0.005 µM", "result": 0.632}, {"measurement": "relative viability", "setting": "NCI-H2228; first compound 0.01581 µM", "result": 0.562}, {"measurement": "relative viability", "setting": "NCI-H2228; first compound 0.05 µM", "result": 0.315}, {"measurement": "relative viability", "setting": "NCI-H2228; first compound 0.1581 µM", "result": 0.183}, {"measurement": "relative viability", "setting": "NCI-H2228; first compound 0.5 µM", "result": 0.136}, {"measurement": "relative viability", "setting": "HCC-827; first compound 0.005 µM", "result": 0.192}, {"measurement": "relative viability", "setting": "HCC-827; first compound 0.01581 µM", "result": 0.16}, {"measurement": "relative viability", "setting": "HCC-827; first compound 0.05 µM", "result": 0.141}, {"measurement": "relative viability", "setting": "HCC-827; first compound 0.1581 µM", "result": 0.136}, {"measurement": "relative viability", "setting": "HCC-827; first compound 0.5 µM", "result": 0.125}, {"measurement": "relative viability", "setting": "PC-14; first compound 0.005 µM", "result": 0.282}, {"measurement": "relative viability", "setting": "PC-14; first compound 0.01581 µM", "result": 0.236}, {"measurement": "relative viability", "setting": "PC-14; first compound 0.05 µM", "result": 0.273}, {"measurement": "relative viability", "setting": "PC-14; first compound 0.1581 µM", "result": 0.17}, {"measurement": "relative viability", "setting": "PC-14; first compound 0.5 µM", "result": 0.221}, {"measurement": "relative viability", "setting": "NCI-H661; first compound 0.005 µM", "result": 0.544}, {"measurement": "relative viability", "setting": "NCI-H661; first compound 0.01581 µM", "result": 0.465}, {"measurement": "relative viability", "setting": "NCI-H661; first compound 0.05 µM", "result": 0.49}, {"measurement": "relative viability", "setting": "NCI-H661; first compound 0.1581 µM", "result": 0.278}, {"measurement": "relative viability", "setting": "NCI-H661; first compound 0.5 µM", "result": 0.233}, {"measurement": "relative viability", "setting": "HCC-15; first compound 0.005 µM", "result": 0.785}, {"measurement": "relative viability", "setting": "HCC-15; first compound 0.01581 µM", "result": 0.887}, {"measurement": "relative viability", "setting": "HCC-15; first compound 0.05 µM", "result": 0.693}, {"measurement": "relative viability", "setting": "HCC-15; first compound 0.1581 µM", "result": 0.615}, {"measurement": "relative viability", "setting": "HCC-15; first compound 0.5 µM", "result": 0.639}, {"measurement": "relative viability", "setting": "NCI-H520; first compound 0.005 µM", "result": 0.557}, {"measurement": "relative viability", "setting": "NCI-H520; first compound 0.01581 µM", "result": 0.743}, {"measurement": "relative viability", "setting": "NCI-H520; first compound 0.05 µM", "result": 0.911}, {"measurement": "relative viability", "setting": "NCI-H520; first compound 0.1581 µM", "result": 0.552}, {"measurement": "relative viability", "setting": "NCI-H520; first compound 0.5 µM", "result": 0.47}, {"measurement": "relative viability", "setting": "NCI-H1650; first compound 0.005 µM", "result": 0.807}, {"measurement": "relative viability", "setting": "NCI-H1650; first compound 0.01581 µM", "result": 0.604}, {"measurement": "relative viability", "setting": "NCI-H1650; first compound 0.05 µM", "result": 0.317}, {"measurement": "relative viability", "setting": "NCI-H1650; first compound 0.1581 µM", "result": 0.247}, {"measurement": "relative viability", "setting": "NCI-H1650; first compound 0.5 µM", "result": 0.155}, {"measurement": "relative viability", "setting": "NCI-H1755; first compound 0.005 µM", "result": 0.759}, {"measurement": "relative viability", "setting": "NCI-H1755; first compound 0.01581 µM", "result": 0.973}, {"measurement": "relative viability", "setting": "NCI-H1755; first compound 0.05 µM", "result": 0.8}, {"measurement": "relative viability", "setting": "NCI-H1755; first compound 0.1581 µM", "result": 0.259}, {"measurement": "relative viability", "setting": "NCI-H1755; first compound 0.5 µM", "result": 0.271}]}]}
